Results published in US5591758A, “Organic nitrates, processes for their preparation and their use in the treatment of cardiovascular diseases” (Laboratoires Hoechst, SA, priority 1991, dated 1997).
Counter-ions that a name gives are not always drawn.

What was measured:
[1] = tested on: anesthetised pigs; assay: Haemodynamic effects on anesthetised pigs; format: in vivo, pigs ("German land" race); conditions: pigs, 10,0 mg/kg i.d.
Protocol: Haemodynamic effects of the compounds according to the invention on anesthetised pigs or dogs
Pigs are of "German land" race (20-26 kg) and are used after fasting overnight.
In the case of pigs, sedation, analgesia and anesthesia are induced by ketamine HCl (20 mg/kg i.m.), methonidate HCl (10 mg/kg i.m.), xylacine HCl (3 mg/kg i.m.) and sodium pentobarbitol (25-30 mg/kg as bolus i.v. or 0.16 mg/kg/min as i.v. perfusion).
The pigs or dogs are placed under artificial respiration in ambient air. Analysis of the blood gases (pO2, pCO2) is carried out at regular intervals and oxygen can be supplied via the respirator, if necessary.
The haemodynamic parameters recorded include the left ventricular pressure (LVP; Millar PC350 Tip catheter inserted via the carotid artery), systemic blood pressure (BPs, BPd; full catheter in a femoral artery), the end pressure of the left ventricular diastole (LVEDP), the ventricular contractility (LVPdp/dtmax) and the heart rate (HR).
The haemodynamic variables are recorded continuously for 1 to 3 hours, as a function of the period of action of the compound.
The effects of the compounds studied are shown as the absolute difference with respect to the base value (bv) measured before administration of the compounds and are shown in Table VII (a,b,c).
An antianginal activity is estimated by a fall in the BPs and the LVEDP (fall in venous return).

[2] = tested on: thoracic aorta; assay: Vasorelaxant effect on isolated vessels (rat thoracic aorta rings without endothelium, precontracted with noradrenalin); parameters: species or system Wistar rats; conditions: for Emax: Rattus norvegicus, maximum inhibition of noradrenalin effect, 10^-8 to 10^-4 M substance, read-out: Maximum Relaxation; for IC50: rat aorta, 10^-7 M noradrenalin contraction
Summary of the method: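 Endothelium-denuded thoracic aorta rings from Wistar rats, held in Krebs-Ringer buffer (pH 7.4, 37 °C, 95% O2/5% CO2) under isometric tension and precontracted with 10^-7 M noradrenalin, received cumulative compound (10^-8 to 10^-4 M). Maximum relaxation given as percent; IC50 calculated when relaxation exceeded 50%.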

[3] = tested on: isolated pulmonary vessel; assay: Relaxant activity on blood vessels isolated from guinea pigs (pulmonary artery); conditions: Cavia porcellus; guinea pig pulmonary artery, K+ depolarised, Ca2+ contraction; read-out: IC50 (relaxation of 50%)
Protocol: Determination of the relaxant activity of the compounds according to the invention on blood vessels isolated from guinea pigs.
The pulmonary artery of male guinea pigs (350-500 g) is isolated and cut into spiral tracts (1 mm wide, 15 mm long). […] After having removed the calcium from the tissues (Tyrode without calcium and 0.2 mM EDTA), the tracts are depolarised in the presence of a concentrated solution of K^+ ions (40 mM), which is produced by replacing the NaCl by equimolar amounts of KCl, and a contraction of long duration is then induced by Ca^2+ ions (0.5 mM).
The compounds studied are then introduced into the organ cell in increasing concentrations.
Each compound is tested on at least four vessel spiral tracts.

[4] = tested on: anesthetised dogs; assay: Haemodynamic effects on anesthetised dogs; format: in vivo, dogs (labrador/harrier cross); conditions: dogs
Summary of the method: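 Anaesthetised labrador/harrier dogs (16–26 kg; pentobarbital induction then 8 mg/kg/h i.v. infusion, artificial respiration) given compound i.d. or i.v. after ~45 min equilibration. LVP, systolic/diastolic BP, LVEDP, LVdP/dtmax and HR recorded continuously 1–3 h; values are absolute change from pre-dose baseline.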

CC1(C)SC[C@@H](C(=O)N[C@H]2CO[C@H]3[C@@H]2OC[C@@H]3O[N+](=O)[O-])N1C=O [Compound 31, 5-[[(3-Formyl-2,2-dimethyl-4-L-thiazolidinyl)carbonyl]amino]-5-deoxy-2-O-nitro-1,4:3,6-dianhydro-L-iditol monohydrochloride]
BPs (min), period of action [1]: > 60 min | BPs, difference to base value [1]: -15 mmHg | LVRDP (min), period of action [1]: > 60 min | LVRDP, difference to base value [1]: -2,0 mmHg | Emax [2]: 83% | IC50 [2]: 25 µM

CC(=O)NCSC[C@H](NC(=O)OC(C)(C)C)C(=O)N[C@H]1CO[C@H]2[C@@H]1OC[C@@H]2O[N+](=O)[O-] [Compound 33, S-[(Acetylamino)methyl]-N-[(t-butoxy)carbonyl]-L-cysteine amide of 5-amino-5-deoxy-2-O-nitro-1,4:3,6-dianhydro-L-iditol]
BPs (min), period of action [1]: > 60 min | BPs, difference to base value [1]: -12 mmHg | LVRDP (min), period of action [1]: > 60 min | LVRDP, difference to base value [1]: -3,0 mmHg | Emax [2]: 50% | IC50 [2]: > 100 µM

CC(=O)NCSC[C@H](N)C(=O)N[C@H]1CO[C@H]2[C@@H]1OC[C@@H]2O[N+](=O)[O-] [Compound 34, S-[(Acetylamino)methyl]-L-cysteine amide of 5-amino-5-deoxy-2-O-nitro-1,4:3,6-dianhydro-L-iditol monohydrochloride]
BPs (min), period of action [1]: > 180 min | BPs, difference to base value [1]: -22 mmHg | LVRDP (min), period of action [1]: > 180 min | LVRDP, difference to base value [1]: -4,0 mmHg | Emax [2]: 25% | IC50 [2]: > 100 µM

O=C(CNC(=O)c1ccccc1SCc1ccccc1)N[C@H]1CO[C@H]2[C@@H]1OC[C@@H]2O[N+](=O)[O-] [Compound 47, 5-[[[[2-[(Phenylmethyl)thio]benzoyl]amino]-1-oxoethyl]amino]-5-deoxy-2-O-nitro-1,4:3,6-dianhydro-L-iditol]
BPs (min), period of action [1]: > 120 min | BPs, difference to base value [1]: -10 mmHg | LVRDP (min), period of action [1]: > 90 min | LVRDP, difference to base value [1]: -1,0 mmHg | IC50 [3]: 2 µM

CC(C)(C)OC(=O)N1CSC[C@H]1C(=O)NCC(=O)O[C@H]1CO[C@H]2[C@@H]1OC[C@H]2O[N+](=O)[O-] [Compound 72, 2-O-[2-[[(3-t-butoxycarbonyl-4-L-thiazolidinyl)carbonyl]amino]-1-oxoethyl]-5-O-nitro-1,4:3,6-dianhydro-D-glucitol]
Emax [2]: 67% | IC50 [2]: 64 µM | BPs (min), period of action ([4]; 10 mg/kg i.v.): 0 min | BPs, difference to base value ([4]; 10 mg/kg i.v.): 0 mmHg | LVEDP (min), period of action ([4]; 10 mg/kg i.v.): 0 min | LVEDP, difference to base value ([4]; 10 mg/kg i.v.): 0,0 mmHg

O=C(CNC(=O)[C@@H]1CSCN1)O[C@H]1CO[C@H]2[C@@H]1OC[C@H]2O[N+](=O)[O-] [Compound 73, 2-O-[2-[[(4-L-thiazolidinyl)carbonyl]amino]-1-oxoethyl]-5-O-nitro-1,4:3,6-dianhydro-D-glucitol monohydrochloride]
Emax [2]: 66% | IC50 [2]: 53 µM | BPs (min), period of action ([4]; 3 mg/kg i.v.): 60 min | BPs, difference to base value ([4]; 3 mg/kg i.v.): -15 mmHg | LVEDP (min), period of action ([4]; 3 mg/kg i.v.): 60 min | LVEDP, difference to base value ([4]; 3 mg/kg i.v.): -2,0 mmHg

CC(C)(C)OC(=O)N1CSC[C@H]1C(=O)N1CSC[C@H]1C(=O)N[C@H]1CO[C@H]2[C@@H]1OC[C@@H]2O[N+](=O)[O-] [Compound 77, 5-[[[(4R)-N-[(3-t-butoxycarbonyl-4-L-thiazolidinyl)carbonyl]-4-thiazolidinyl]carbonyl]amino]-5-deoxy-2-O-nitro-1,4:3,6-dianhydro-L-iditol]
Emax [2]: 97% | IC50 [2]: 40 µM | BPs (min), period of action ([4]; 3 mg/kg i.d.): > 180 min | BPs, difference to base value ([4]; 3 mg/kg i.d.): -35 mmHg | LVEDP (min), period of action ([4]; 3 mg/kg i.d.): > 180 min | LVEDP, difference to base value ([4]; 3 mg/kg i.d.): -2,0 mmHg

O=C(N[C@H]1CO[C@H]2[C@@H]1OC[C@@H]2O[N+](=O)[O-])[C@@H]1CSCN1C(=O)[C@@H]1CSCN1 [Compound 78, 5-[[[(4R)-N-[(4-L-thiazolidinyl)carbonyl]-4-thiazolidinyl]carbonyl]amino]-5-deoxy-2-O-nitro-1,4:3,6-dianhydro-L-iditol monohydrochloride]
Emax [2]: 89% | IC50 [2]: 20 µM | BPs (min), period of action ([4]; 3 mg/kg i.d.): 150 min | BPs, difference to base value ([4]; 3 mg/kg i.d.): -13 mmHg | LVEDP (min), period of action ([4]; 3 mg/kg i.d.): 90 min | LVEDP, difference to base value ([4]; 3 mg/kg i.d.): -1,0 mmHg
